For 4 molecules, IC50 results are on record in BindingDB's records for doi:10.1016/j.bmc.2014.01.014 (Shenyang Pharmaceutical University, 2014).

In this test the target is Hepatocyte growth factor receptor (Homo sapiens, UniProt P08581). The experiment in a line: Inhibition of c-Met (unknown origin) using poly (Glu, Tyr) 4:1 after 30 mins by HTRF assay. On the technique in general: Time-resolved FRET reads energy transfer from a long-lived donor to a nearby acceptor.
A word on the IC50: it is the concentration that gives 50% inhibition. A lower IC50 goes with higher potency. Molecule `COc1cc2c(Oc3ccc(N=Cc4c(O)n(-c5ccc(C)cc5)c(=O)[nH]c4=O)cc3F)ccnc2cc1OCCCN1CCN(C)CC1` came in with an IC50 of 2.7 nM.
The same measure for `COc1cc2c(Oc3ccc(N=Cc4c(O)n(-c5ccc(F)cc5F)c(=O)[nH]c4=O)cc3F)ccnc2cc1OCCCN1CCOCC1`: 12 nM; for `COc1cc2c(Oc3ccc(N=Cc4c(O)n(-c5ccc(F)cc5F)c(=O)[nH]c4=O)cc3F)ccnc2cc1OCCCN1CCCC1`: 12 nM; for `COc1cc2c(Oc3ccc(N=Cc4c(O)n(-c5ccc(F)cc5)c(=O)[nH]c4=O)cc3F)ccnc2cc1OCCCN1CCCC1`: 2.7 nM.
